Assay results published in patent US4933347A, “Diamidines and bis(imidazolines) for the treatment of and prophylaxis against pneumocystis carinii pneumonia” (University of North Carolina at Chapel Hill, priority 1988, dated 1990).

Assays:
[1] = Toxicity of amidines in rats (standard laboratory procedure); format: in vivo
Experimental: Compounds having the structure represented by Formula I were synthesized in accordance with the appropriate procedures discussed previously. The reaction schemes shown in Charts I-III specifically identify the methodology used to synthesize the compounds of the respective examples. The compounds which were synthesized are shown in Table IA and the elemental analysis and melting points of the compounds are shown in Table IB. Most of the compounds were tested for toxicity in rats using standard laboratory procedure and the results of that toxicity testing are shown in Table XII. The compounds of Examples 31, 32, and 34 were not synthesized but may be synthesized in the general manner discussed previously.

Pneumocystis carinii = experiment: Treatment of Pneumocystis carinii pneumonia in Sprague-Dawley rats (extent of disease by histologic score); format: in vivo, male Sprague-Dawley rats; conditions: for Extent of Disease by Histologic Score: number of animals with score 0.5 / Extent of Disease by Histologic Score: number of animals with score 1 / Extent of Disease by Histologic Score: number of animals with score 2 / Extent of Disease by Histologic Score: number of animals with score 3 / Extent of Disease by Histologic Score: number of animals with score 4: 14 days; for Extent of Disease by Histologic Score: number of animals with score 0.5 / Extent of disease by histologic score (combined): number of animals in scoring group 0.5: 0.5 = <10 cysts found per 2 sections; for Extent of Disease by Histologic Score: number of animals with score 1 / Extent of disease by histologic score (combined): number of animals in scoring group 1: 1 = scattered cysts, <5% of lung involved; for Extent of Disease by Histologic Score: number of animals with score 2 / Extent of disease by histologic score (combined): number of animals in scoring group 2: 2 = scattered cysts; for Extent of Disease by Histologic Score: number of animals with score 2: 5-10% lung involved or small foci of infection; for Extent of Disease by Histologic Score: number of animals with score 3 / Extent of disease by histologic score (combined): number of animals in scoring group 3: 3 = scattered cysts; for Extent of Disease by Histologic Score: number of animals with score 3: 10-50% of lung involved with some intense areas of infection; for Extent of Disease by Histologic Score: number of animals with score 4: 4 = >50% of lung involved with many intense areas of focal infection; for Extent of disease by histologic score (combined): number of animals in scoring group 0.5 / Extent of disease by histologic score (combined): number of animals in scoring group 1 / Extent of disease by histologic score (combined): number of animals in scoring group 2 / Extent of disease by histologic score (combined): number of animals in scoring group 3 / Extent of disease by histologic score (combined): number of animals in scoring group 4: Table XII composite; for Extent of disease by histologic score (combined): number of animals in scoring group 2: 5-10% of lung involved; for Extent of disease by histologic score (combined): number of animals in scoring group 3: 10-50% of lung involved; for Extent of disease by histologic score (combined): number of animals in scoring group 4: 4 = >50% of lung involved
[2] = dose as in value, else not given in Table XIII (10 mg/kg test dose)

| Compound | Toxicity of amidines: Effect [1, 2] | Extent of Disease by Histologic Score: number of animals with score 0.5 (Pneumocystis carinii; 5 mg/kg i.v. daily) [animals] | Extent of Disease by Histologic Score: number of animals with score 1 (Pneumocystis carinii; 5 mg/kg i.v. daily) [animals] | Extent of Disease by Histologic Score: number of animals with score 2 (Pneumocystis carinii; 5 mg/kg i.v. daily) [animals] | Extent of Disease by Histologic Score: number of animals with score 3 (Pneumocystis carinii; 5 mg/kg i.v. daily) [animals] | Extent of Disease by Histologic Score: number of animals with score 4 (Pneumocystis carinii; 5 mg/kg i.v. daily) [animals] | Extent of disease by histologic score (combined): number of animals in scoring group 0.5 (Pneumocystis carinii; tested at 5 mg/kg) [animals] | Extent of disease by histologic score (combined): number of animals in scoring group 1 (Pneumocystis carinii; tested at 5 mg/kg) [animals] | Extent of disease by histologic score (combined): number of animals in scoring group 2 (Pneumocystis carinii; tested at 5 mg/kg) [animals] | Extent of disease by histologic score (combined): number of animals in scoring group 3 (Pneumocystis carinii; tested at 5 mg/kg) [animals] | Extent of disease by histologic score (combined): number of animals in scoring group 4 (Pneumocystis carinii; tested at 5 mg/kg) [animals] | Extent of Disease by Histologic Score: number of animals with score 0.5 (Pneumocystis carinii; 2.5 mg/kg i.v. daily) [animals] | Extent of Disease by Histologic Score: number of animals with score 1 (Pneumocystis carinii; 2.5 mg/kg i.v. daily) [animals] | Extent of Disease by Histologic Score: number of animals with score 2 (Pneumocystis carinii; 2.5 mg/kg i.v. daily) [animals] | Extent of Disease by Histologic Score: number of animals with score 3 (Pneumocystis carinii; 2.5 mg/kg i.v. daily) [animals] | Extent of Disease by Histologic Score: number of animals with score 4 (Pneumocystis carinii; 2.5 mg/kg i.v. daily) [animals] | Extent of disease by histologic score (combined): number of animals in scoring group 0.5 (Pneumocystis carinii; tested at 2.5 mg/kg) [animals] | Extent of disease by histologic score (combined): number of animals in scoring group 1 (Pneumocystis carinii; tested at 2.5 mg/kg) [animals] | Extent of disease by histologic score (combined): number of animals in scoring group 2 (Pneumocystis carinii; tested at 2.5 mg/kg) [animals] | Extent of disease by histologic score (combined): number of animals in scoring group 3 (Pneumocystis carinii; tested at 2.5 mg/kg) [animals] | further results |
| --- | --- | --- | --- | --- | --- | --- | --- | --- | --- | --- | --- | --- | --- | --- | --- | --- | --- | --- | --- | --- | --- |
| N=C(N)c1ccc(OCCCCCOc2ccc(C(=N)N)cc2[N+](=O)[O-])c([N+](=O)[O-])c1 [Example 13] | Acute toxicity, death at 10 mg/kg | 3 | 2 | 3 | 0 | 0 | 0 | 2 | 4 | 2 | 0 |  |  |  |  |  |  |  |  |  |  |
| N=C(N)c1ccc(NCCCCCNc2ccc(C(=N)N)cc2)cc1 [Example 17] |  |  |  |  |  |  |  |  |  |  |  |  |  |  |  |  |  |  |  |  | Deaths by day 13 ([1]; rat, in vivo): 2 deaths; Extent of Disease by Histologic Score: number of animals with score 0.5 (Pneumocystis carinii; 10 mg/kg i.v. daily): 1 animals; Extent of Disease by Histologic Score: number of animals with score 1 (Pneumocystis carinii; 10 mg/kg i.v. daily): 2 animals; Extent of Disease by Histologic Score: number of animals with score 2 (Pneumocystis carinii; 10 mg/kg i.v. daily): 3 animals; Extent of Disease by Histologic Score: number of animals with score 3 (Pneumocystis carinii; 10 mg/kg i.v. daily): 1 animals; Extent of Disease by Histologic Score: number of animals with score 4 (Pneumocystis carinii; 10 mg/kg i.v. daily): 0 animals; Efficacy in treating PCP compared with pentamidine (Pneumocystis carinii; 10 mg/kg unless otherwise noted): better than or equal to pentamidine; Extent of disease by histologic score (combined): number of animals in scoring group 0.5 (Pneumocystis carinii; 10 mg/kg): 1 animals; Extent of disease by histologic score (combined): number of animals in scoring group 1 (Pneumocystis carinii; 10 mg/kg): 2 animals; Extent of disease by histologic score (combined): number of animals in scoring group 2 (Pneumocystis carinii; 10 mg/kg): 3 animals; Extent of disease by histologic score (combined): number of animals in scoring group 3 (Pneumocystis carinii; 10 mg/kg): 1 animals; Extent of disease by histologic score (combined): number of animals in scoring group 4 (Pneumocystis carinii; 10 mg/kg): 0 animals; Efficacy in treating PCP compared with related compounds of the series (Pneumocystis carinii; effect of chain length or substituent): least effective |
| N=C(N)c1ccc(NCCCCCNc2ccc(C(=N)N)cc2[N+](=O)[O-])c([N+](=O)[O-])c1 [Example 18] | Acute toxicity - death at 10 mg/kg | 1 | 3 | 0 | 2 | 1 | 1 | 3 | 0 | 2 | 1 |  |  |  |  |  |  |  |  |  | Efficacy in treating PCP compared with control (Pneumocystis carinii; compound at 5 mg/kg): better than the control; Efficacy in treating PCP compared with pentamidine (Pneumocystis carinii; compound at 5 mg/kg): less effective than pentamidine |
| N=C(N)c1ccc(OCCCCCCOc2ccc(C(=N)N)cc2N)c(N)c1 [Example 22] | Acute toxicity - death at 10 mg/kg | 0 | 1 | 4 | 3 | 0 | 0 | 1 | 4 | 3 | 0 |  |  |  |  |  |  |  |  |  | Toxicity (words in running text) ([1]; rat, in vivo): toxic; Efficacy in treating PCP compared with pentamidine (Pneumocystis carinii; compound at 5 mg/kg): significantly less effective than the other compounds or pentamidine |
| N=C(N)c1ccc(OCCCCOc2ccc(C(=N)N)cc2Cl)c(Cl)c1 [Example 24] |  |  |  |  |  |  |  |  |  |  |  | 0 | 1 | 2 | 3 | 2 | 0 | 1 | 2 | 3 | Toxicity of amidines: Effect ([1]; rat, in vivo, 2.5 mg/kg): None; Extent of disease by histologic score (combined): number of animals in scoring group 4 (Pneumocystis carinii; tested at 2.5 mg/kg): 2 animals |
| N=C(N)c1ccc(OCCCCCOc2ccc(C(=N)N)cc2Cl)c(Cl)c1 [Example 25] |  |  |  |  |  |  |  |  |  |  |  | 0 | 0 | 0 | 4 | 4 | 0 | 0 | 0 | 4 | Toxicity of amidines: Effect ([1]; rat, in vivo, 2.5 mg/kg): None; Extent of disease by histologic score (combined): number of animals in scoring group 4 (Pneumocystis carinii; tested at 2.5 mg/kg): 4 animals |
| N=C(N)c1ccc(NCCCNc2ccc(C(=N)N)cc2[N+](=O)[O-])c([N+](=O)[O-])c1 [Example 35] |  | 0 | 0 | 0 | 2 | 6 | 0 | 0 | 0 | 2 | 6 |  |  |  |  |  |  |  |  |  | Toxicity of amidines: Effect ([1]; tested at 5 mg/kg): no toxicity |
| N=C(N)c1ccc(OCCCCOc2ccc(C(=N)N)cc2[N+](=O)[O-])c([N+](=O)[O-])c1 [Example 38] | Acute toxicity at 10 mg/kg and 5 mg/kg |  |  |  |  |  |  |  |  |  |  | 0 | 0 | 3 | 1 | 4 | 0 | 0 | 3 | 1 | Toxicity of amidines: Effect ([1]; tested at 2.5 mg/kg): no toxicity; Extent of disease by histologic score (combined): number of animals in scoring group 4 (Pneumocystis carinii; tested at 2.5 mg/kg): 4 animals |
| CN1CCN=C1c1ccc(OCCCCOc2ccc(C3=NCCN3C)cc2)cc1 [Example 41] |  |  |  |  |  |  |  |  |  |  |  | 0 | 0 | 2 | 4 | 2 | 0 | 0 | 2 | 4 | Toxicity of amidines: Effect ([1]; rat, in vivo, 2.5 mg/kg): no toxicity; Extent of disease by histologic score (combined): number of animals in scoring group 4 (Pneumocystis carinii; tested at 2.5 mg/kg): 2 animals |
